What was measured:
K. pneumoniae 160143 = experiment: MIC of ceftazidime (CAZ) at fixed concentration of compound (synergy), broth microdilution; format: cell-based; conditions: MIC of ceftazidime with compound fixed at 4 μg/mL; strain 160143 (K. pneumoniae)
Method in brief: (§1)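 Log-phase bacteria were diluted to a final 5×10^5 cfu/mL in cation-adjusted Mueller-Hinton broth and incubated 16-20 h at 35° C in ambient air. MIC was taken as the lowest concentration preventing growth, judged visually.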

K. pneumoniae UFR77 = experiment: as above; format: cell-based; conditions: MIC of ceftazidime with compound fixed at 4 μg/mL; strain UFR77 (K. pneumoniae)
Method in brief: as §1

E. coli 131119 = experiment: as above; format: cell-based; conditions: MIC of ceftazidime with compound fixed at 4 μg/mL; strain 131119 (E. coli)
Method in brief: as §1

E. cloacae UFR85 = experiment: as above; format: cell-based; conditions: MIC of ceftazidime with compound fixed at 4 μg/mL; strain UFR85 (E. cloacae)
Method in brief: as §1

E. cloacae P99 [1] = experiment: as above; format: cell-based
Method in brief: as §1

E. cloacae UFR70 = experiment: as above; format: cell-based; conditions: MIC of ceftazidime with compound fixed at 4 μg/mL; strain UFR70 (E. cloacae)
Method in brief: as §1

E. cloacae 260508 = experiment: as above; format: cell-based; conditions: MIC of ceftazidime with compound fixed at 4 μg/mL; strain 260508 (E. cloacae)
Method in brief: as §1

E. coli UFR18 = experiment: as above; format: cell-based; conditions: MIC of ceftazidime with compound fixed at 4 μg/mL; strain UFR18 (E. coli)
Method in brief: as §1

K. pneumoniae BAA-1898 [2] = experiment: as above; format: cell-based
Method in brief: as §1

E. coli UFR61O = experiment: as above; format: cell-based; conditions: MIC of ceftazidime with compound fixed at 4 μg/mL; strain UFR61O (E. coli)
Method in brief: as §1

E. coli RGN238 = experiment: as above; format: cell-based; conditions: MIC of ceftazidime with compound fixed at 4 μg/mL; strain RGN238 (E. coli)
Method in brief: as §1

E. coli UFR74 = experiment: as above; format: cell-based; conditions: MIC of ceftazidime with compound fixed at 4 μg/mL; strain UFR74 (E. coli)
Method in brief: as §1

E. coli UFR32 = experiment: as above; format: cell-based; conditions: MIC of ceftazidime with compound fixed at 4 μg/mL; strain UFR32 (E. coli)
Method in brief: as §1

E. coli 190317 [3] = experiment: as above; format: cell-based
Method in brief: as §1

P. aeruginosa CIP107051 [4] = experiment: as above; format: cell-based
Method in brief: as §1

E. coli UFR39 [5] = experiment: as above; format: cell-based; conditions: MIC of ceftazidime with compound fixed at 4 μg/mL; strain UFR39 (E. coli)
Method in brief: as §1

K. pneumoniae UFR24 = experiment: as above; format: cell-based; conditions: MIC of ceftazidime with compound fixed at 4 μg/mL; strain UFR24 (K. pneumoniae)
Method in brief: as §1

K. oxytoca UFR21 = experiment: as above; format: cell-based; conditions: MIC of ceftazidime with compound fixed at 4 μg/mL; strain UFR21 (K. oxytoca)
Method in brief: as §1

K. pneumoniae 200047 = experiment: as above; format: cell-based; conditions: MIC of ceftazidime with compound fixed at 4 μg/mL; strain 200047 (K. pneumoniae)
Method in brief: as §1

E. cloacae UFR51 = experiment: as above; format: cell-based; conditions: MIC of ceftazidime with compound fixed at 4 μg/mL; strain UFR51 (E. cloacae)
Method in brief: as §1

E. coli UFR41 = experiment: as above; format: cell-based; conditions: MIC of ceftazidime with compound fixed at 4 μg/mL; strain UFR41 (E. coli)
Method in brief: as §1

K. pneumoniae 6299 [6] = experiment: as above; format: cell-based
Method in brief: as §1

K. pneumoniae UFR68 = experiment: as above; format: cell-based; conditions: MIC of ceftazidime with compound fixed at 4 μg/mL; strain UFR68 (K. pneumoniae)
Method in brief: as §1

CMY-37 = CMY-37 (Citrobacter freundii, UniProt P05193); conditions: read-out: IC50 β-lactamase CMY-37; class (C); nitrocefin 200 μM, 30-min pre-incubation, enzyme 0.2 nM
P. aeruginosa CIP107051 [7] = experiment: MIC of compound alone, broth microdilution; format: cell-based
Method in brief: as §1

K. pneumoniae 6299 [8] = experiment: MIC of compound alone, broth microdilution; format: cell-based
Method in brief: as §1

E. coli UFR39 [9] = experiment: MIC of compound alone, broth microdilution; format: cell-based; conditions: Escherichia coli, UFR39, read-out: MIC CAZ alone
Method in brief: as §1

OXA-11 = OXA-11 (Pseudomonas aeruginosa, UniProt Q06778); conditions: read-out: IC50 β-lactamase OXA-11; class (D); nitrocefin 200 μM, 30-min pre-incubation, enzyme 1.2 nM
AmpC (PAE) = AmpC (PAE) (Pseudomonas aeruginosa, UniProt P24735); conditions: read-out: IC50 β-lactamase AmpC (PAE); class (C); nitrocefin 200 μM, 30-min pre-incubation, enzyme 0.4 nM
SHV-1 = SHV-1 (Klebsiella pneumoniae, UniProt P0AD64); conditions: read-out: IC50 β-lactamase SHV-1; class (A); nitrocefin 200 μM, 30-min pre-incubation, enzyme 0.075 nM
KPC-2 = KPC-2 (Klebsiella pneumoniae, UniProt Q9F663); conditions: read-out: IC50 β-lactamase KPC-2; class (A); nitrocefin 200 μM, 30-min pre-incubation, enzyme 1 nM
TEM-1 = TEM-1 (Escherichia coli, UniProt P62593); conditions: read-out: IC50 β-lactamase TEM-1; class (A); nitrocefin 200 μM, 30-min pre-incubation, enzyme 0.1 nM
E. cloacae P99 [10] = experiment: MIC of compound alone, broth microdilution; format: cell-based; conditions: strain P99; compound alone
Method in brief: as §1

K. pneumoniae BAA-1898 [11] = experiment: MIC of compound alone, broth microdilution; format: cell-based; conditions: strain BAA-1898; compound alone
Method in brief: as §1

E. coli 190317 [12] = experiment: MIC of compound alone, broth microdilution; format: cell-based; conditions: strain 190317; compound alone
Method in brief: as §1

OXA-48 = OXA-48 (Klebsiella pneumoniae, UniProt Q6XEC0); conditions: read-out: IC50 β-lactamase OXA-48; class (D); nitrocefin 200 μM, 30-min pre-incubation, enzyme 0.3 nM
AmpC (P99) = AmpC (P99) (Enterobacter cloacae, UniProt P05364); conditions: read-out: IC50 β-lactamase AmpC (P99); class (C); nitrocefin 200 μM, 30-min pre-incubation, enzyme 0.2 nM
OXA-1 = OXA-1 (Escherichia coli, UniProt P13661); conditions: read-out: IC50 β-lactamase OXA-1; class (D); nitrocefin 200 μM, 30-min pre-incubation, enzyme 0.2 nM
CTX-M-15 = CTX-M-15 (Escherichia coli, UniProt Q9EXV5); conditions: read-out: IC50 β-lactamase CTX-M-15; class (A); nitrocefin 200 μM, 30-min pre-incubation, enzyme 0.4 nM
OXA-15 = OXA-15 (Pseudomonas aeruginosa, UniProt Q51574); conditions: read-out: IC50 β-lactamase OXA-15; class (D); nitrocefin 200 μM, 30-min pre-incubation, enzyme 0.4 nM

O=C1N2CC(n3cccn3)=CC(C2)N1OC(F)(F)C(=O)[O-].[Li+] (stereo not drawn) [Example 4, lithium difluoro-(7-oxo-3-pyrazol-1-yl-1,6-diaza-bicyclo[3.2.1]oct-3-en-6-yloxy)-acetate]
MIC combination of CAZ and compounds of the invention at 4 μg/mL (K. pneumoniae 160143): <0.25
MIC combination of CAZ and compounds of the invention at 4 μg/mL (K. pneumoniae UFR77): <0.25
MIC combination of CAZ and compounds of the invention at 4 μg/mL (E. coli 131119): <0.25
MIC combination of CAZ and compounds of the invention at 4 μg/mL (E. cloacae UFR85): 1
MIC combination of CAZ and compounds of the invention at 4 μg/mL (E. cloacae P99 [1]; MIC of ceftazidime with compound fixed at 4 μg/mL, strain P99 (E. cloacae)): ≤0.25
MIC combination of CAZ and compounds of the invention at 4 μg/mL (E. cloacae UFR70): <0.25
MIC combination of CAZ and compounds of the invention at 4 μg/mL (E. cloacae 260508): ≤0.25
MIC combination of CAZ and compounds of the invention at 4 μg/mL (E. coli UFR18): <0.25
MIC combination of CAZ and compounds of the invention at 4 μg/mL (K. pneumoniae BAA-1898 [2]; MIC of ceftazidime with compound fixed at 4 μg/mL, strain BAA-1898 (K. pneumoniae)): 0.5
MIC combination of CAZ and compounds of the invention at 4 μg/mL (E. coli UFR61O): <0.25
MIC combination of CAZ and compounds of the invention at 4 μg/mL (E. coli RGN238): <0.25
MIC combination of CAZ and compounds of the invention at 4 μg/mL (E. coli UFR74): <0.25
MIC combination of CAZ and compounds of the invention at 4 μg/mL (E. coli UFR32): <0.25
MIC combination of CAZ and compounds of the invention at 4 μg/mL (E. coli 190317 [3]; MIC of ceftazidime with compound fixed at 4 μg/mL, strain 190317 (E. coli)): <0.25
MIC combination of CAZ and compounds of the invention at 4 μg/mL (P. aeruginosa CIP107051 [4]; MIC of ceftazidime with compound fixed at 4 μg/mL, strain CIP107051 (P. aeruginosa)): 4
MIC combination of CAZ and compounds of the invention at 4 μg/mL (E. coli UFR39 [5]): <0.25
MIC combination of CAZ and compounds of the invention at 4 μg/mL (K. pneumoniae UFR24): 0.5
MIC combination of CAZ and compounds of the invention at 4 μg/mL (K. oxytoca UFR21): 4
MIC combination of CAZ and compounds of the invention at 4 μg/mL (K. pneumoniae 200047): <0.25
MIC combination of CAZ and compounds of the invention at 4 μg/mL (E. cloacae UFR51): <0.25
MIC combination of CAZ and compounds of the invention at 4 μg/mL (E. coli UFR41): <0.25
MIC combination of CAZ and compounds of the invention at 4 μg/mL (K. pneumoniae 6299 [6]; MIC of ceftazidime with compound fixed at 4 μg/mL, strain 6299 (K. pneumoniae)): ≤0.25
MIC combination of CAZ and compounds of the invention at 4 μg/mL (K. pneumoniae UFR68): 4
IC50 (CMY-37): 150 nM
MIC (P. aeruginosa CIP107051 [7]; Pseudomonas aeruginosa, CIP107051, read-out: MIC compounds of the invention alone): > 32 µg/mL
MIC (K. pneumoniae 6299 [8]; Klebsiella pneumoniae, 6299, read-out: MIC compounds of the invention alone): 16 µg/mL

CC(C)(O/N=C(\C(=O)N[C@@H]1C(=O)N2C(C(=O)[O-])=C(C[n+]3ccccc3)CS[C@H]12)c1csc(N)n1)C(=O)O [CAZ, ceftazidime, reference compound]
MIC (E. coli UFR39 [9]): > 1020 µg/mL

NCCONC(=O)c1cnn(C2=CC3CN(C2)C(=O)N3OS(=O)(=O)[O-])c1.O=C(O)C(F)(F)F.[Na+] (stereo not drawn) [Example 24, sodium and 2,2,2-trifluoroacetate [7-oxo-3-[4-carboxamide,N-(2-ammoniumethoxy)-pyrazol-1-yl]-1,6-diazabicyclo[3.2.1]oct-3-en-6-yl]sulfate]
IC50 (OXA-11): 95 nM
IC50 (AmpC (PAE)): 160 nM
IC50 (SHV-1): 2.4 nM
MIC combination of CAZ and compounds of the invention at 4 μg/mL (E. cloacae P99 [1]; strain P99, MIC of CAZ, compound fixed at 4 μg/mL): 0.25 µg/mL
MIC combination of CAZ and compounds of the invention at 4 μg/mL (K. pneumoniae BAA-1898 [2]; strain BAA-1898, MIC of CAZ, compound fixed at 4 μg/mL): 1 µg/mL
MIC combination of CAZ and compounds of the invention at 4 μg/mL (E. coli 190317 [3]; strain 190317, MIC of CAZ, compound fixed at 4 μg/mL): <0.25 µg/mL
MIC combination of CAZ and compounds of the invention at 4 μg/mL (P. aeruginosa CIP107051 [4]; strain CIP107051, MIC of CAZ, compound fixed at 4 μg/mL): 4 µg/mL
MIC combination of CAZ and compounds of the invention at 4 μg/mL (K. pneumoniae 6299 [6]; strain 6299, MIC of CAZ, compound fixed at 4 μg/mL): 0.25 µg/mL
IC50 (KPC-2): 5.2 nM
IC50 (CMY-37): 16 nM
IC50 (TEM-1): 0.37 nM
MIC compounds of the invention alone (E. cloacae P99 [10]): 16 µg/mL
MIC compounds of the invention alone (K. pneumoniae BAA-1898 [11]): >32 µg/mL
MIC compounds of the invention alone (E. coli 190317 [12]): 2 µg/mL
MIC compounds of the invention alone (P. aeruginosa CIP107051 [7]; strain CIP107051, compound alone): >32 µg/mL
MIC compounds of the invention alone (K. pneumoniae 6299 [8]; strain 6299, compound alone): >32 µg/mL
IC50 (OXA-48): 4.6 nM
IC50 (AmpC (P99)): 12 nM
IC50 (OXA-1): 76 nM
IC50 (CTX-M-15): 0.75 nM
IC50 (OXA-15): 48 nM

— US10722520B2, “Heterocyclic compounds and their use in preventing or treating bacterial infections” (MUTABILIS, priority 2016, dated 2020)
